The experiment has as its target T1, SOS1 protein (Homo sapiens, UniProt Q07889).
T1 sequence (Q07889 1-1333): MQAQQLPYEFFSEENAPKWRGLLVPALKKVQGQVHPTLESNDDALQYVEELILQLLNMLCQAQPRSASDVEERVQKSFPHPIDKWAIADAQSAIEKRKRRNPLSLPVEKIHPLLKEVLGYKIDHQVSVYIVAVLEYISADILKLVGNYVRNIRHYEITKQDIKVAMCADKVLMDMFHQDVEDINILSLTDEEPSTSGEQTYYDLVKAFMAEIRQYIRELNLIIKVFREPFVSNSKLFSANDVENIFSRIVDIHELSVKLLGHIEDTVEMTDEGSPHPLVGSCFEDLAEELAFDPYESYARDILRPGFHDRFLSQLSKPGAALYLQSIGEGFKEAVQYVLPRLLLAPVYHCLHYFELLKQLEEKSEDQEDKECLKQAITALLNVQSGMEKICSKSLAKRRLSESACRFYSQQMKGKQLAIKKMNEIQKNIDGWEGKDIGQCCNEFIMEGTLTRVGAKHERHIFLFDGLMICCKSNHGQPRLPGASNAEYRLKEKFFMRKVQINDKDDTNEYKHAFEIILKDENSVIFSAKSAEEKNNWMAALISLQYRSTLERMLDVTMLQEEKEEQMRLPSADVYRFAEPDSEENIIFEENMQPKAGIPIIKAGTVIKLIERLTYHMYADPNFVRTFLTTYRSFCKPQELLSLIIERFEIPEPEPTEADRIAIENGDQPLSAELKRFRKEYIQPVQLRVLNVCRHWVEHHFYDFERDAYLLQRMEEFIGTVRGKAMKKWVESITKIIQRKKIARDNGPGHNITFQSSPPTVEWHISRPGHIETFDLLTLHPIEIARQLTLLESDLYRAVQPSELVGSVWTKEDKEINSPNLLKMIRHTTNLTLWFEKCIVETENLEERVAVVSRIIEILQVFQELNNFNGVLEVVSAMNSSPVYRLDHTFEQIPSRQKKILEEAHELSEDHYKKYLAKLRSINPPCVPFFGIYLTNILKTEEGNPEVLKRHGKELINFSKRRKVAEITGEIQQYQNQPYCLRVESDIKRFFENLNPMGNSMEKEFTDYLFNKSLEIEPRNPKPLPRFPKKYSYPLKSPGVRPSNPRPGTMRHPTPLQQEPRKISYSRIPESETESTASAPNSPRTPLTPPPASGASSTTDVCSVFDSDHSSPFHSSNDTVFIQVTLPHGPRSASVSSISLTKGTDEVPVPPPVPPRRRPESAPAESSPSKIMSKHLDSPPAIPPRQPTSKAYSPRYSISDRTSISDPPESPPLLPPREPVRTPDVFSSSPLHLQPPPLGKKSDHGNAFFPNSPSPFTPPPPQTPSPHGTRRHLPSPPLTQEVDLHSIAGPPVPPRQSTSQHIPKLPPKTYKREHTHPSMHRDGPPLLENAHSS
In words: SOS1 degradation assay (Western blot), NCI-H358 cells. The experiment is classed as cell-based. Details: The degradation of SOS1 by the compounds was investigated on KRAS G12C mutant human non-small cell lung cancer cells NCI-H358; host or cells: NCI-H358 (human cancer cell lines). As to conditions: SOS1 degradation, NCI-H358 cells, 24 h, Western blot; for DC50: read-out: NCI-H358 (G12C) DC50; for Dmax: read-out: NCI-H358 (G12C) Dmax. As to the method:
The specific procedures were as follows:
0.95 mL of cells were seeded into each well of a 24-well cell culture plate to achieve a cell density of 5×10^5 cells/well; the cell plate was incubated in an incubator at 37° C. with 5% CO2 overnight. Then 50 μL of the compound solution after dilution was added to each of the wells with the corresponding cells, so that the final concentration of the compound was in a range of 0.03-3000 nM. […] After dosing, the cell plate was incubated in an incubator at 37° C. with 5% CO2 for 24 h. […] After the plate was left to stand on ice for 30 min, the protein lysate in each well was transferred to a 1.5 mL centrifuge tube and centrifuged at 15000 g for 20 min at 4° C. The cell lysate supernatant after centrifugation was cryopreserved at −80° C. for testing and was used for determining the degradation level of the SOS1 protein by a WB method. The concentration of total protein in the cell lysate supernatant was determined using the BCA Protein Quantification Kit (Tiangen, PA115-02).
The concentration of total protein in the cell lysate was determined by BCA. The total protein was adjusted to 0.5 μg/μL with PBS and 5× SDS-PAGE protein loading buffer (Beyotime, P0015L), incubated in a water bath at 100° C. for 15 min, incubated in an ice bath on ice for 5 min, centrifuged at 14000 g for 1 min at 4° C., and mixed well as a loading sample for WB. Protein electrophoresis was performed on a precast gel (KeyGEN, KGMGO10W15) with a loading volume of 10 μL (total protein: 5 μg) using a Tris-MOPS-SDS running solution (Adamas, P1598253) at a constant voltage of 120 V for 55 min. After the electrophoresis, the protein on the gel strip was transferred to a PVDF membrane at a constant current of 250 mA for 65 min. After the membrane transfer, the membrane was incubated in 1× QuickBlock blocking buffer (Beyotime, P0235) for 30 min at room temperature. […] The protein map was subjected to gray value analysis by the chemiluminescence imaging system from Clinx. […] Then the degradation rate was calculated by comparing the gray correction value with the gray correction value of the control group. Then nonlinear curve fitting was performed by GraphPad Prism 8 in the logarithmic concentration-inhibition rate to obtain the DC50 and Dmax values of the compounds.

For the compound `COc1cc2nc(C)nc(N[C@H](C)c3cc(N)cc(C(F)(F)F)c3)c2cc1[C@H]1CC[C@H](C(=O)N(C)CCOCC#CC2CCN(C(=O)c3ccc(Cl)c(N4CCC(=O)NC4=O)c3)CC2)CC1` [Example 26, (1R,4R)-4-(4-(((R)-1-(3-amino-5-(trifluoromethyl)phenyl)ethyl)amino)-7-methoxy-2-methylquinazolin-6-yl)-N-(2-((3-(1-(4-chloro-3-(2,4-dioxotetrahydropyrimidin-1(2H)-yl)benzoyl)piperidin-4-yl)prop-2-yn-1-yl)oxo)ethyl)-N-methylcyclohexane-1-carboxamide], the “NCI-H358 (G12C) Dmax” value is listed as “D (when Dmax (%)<30, the level was D)” and the DC50 was 1000 to 10000 nM.
Take `COc1cc2nc(C)nc(N[C@H](C)c3cc(N)cc(C(F)(F)F)c3)c2cc1[C@H]1CC[C@H](C(=O)N2CCN(CC#CC3CCN(C(=O)c4ccc(Cl)c(N5CCC(=O)NC5=O)c4)CC3)CC2)CC1` [Example 27, 1-(5-(4-(3-(4-((1R,4R)-4-(4-(((R)-1-(3-amino-5-(trifluoromethyl)phenyl)ethyl)amino)-7-methoxy-2-methylquinazolin-6-yl)cyclohexane-1-carbonyl)piperazin-1-yl)prop-1-yn-1-yl)piperidine-1-carbonyl)-2-chlorophenyl)dihydropyrimidine-2,4(1H,3H)-dione]: the half-maximal degradation concentration (DC50) was 1000 to 10000 nM and the Dmax is below 30%.
For `COc1cc2nc(C)nc(N[C@H](C)c3cc(N)cc(C(F)(F)F)c3)c2cc1[C@H]1CC[C@H](C(=O)N2CCN(CCCCC3CCN(C(=O)c4ccc(Cl)c(N5CCC(=O)NC5=O)c4)CC3)CC2)CC1` [Example 29, 1-(5-(4-(4-(4-((1R,4R)-4-(4-(((R)-1-(3-amino-5-(trifluoromethyl)phenyl)ethyl)amino)-7-methoxy-2-methylquinazolin-6-yl)cyclohexane-1-carbonyl)piperazin-1-yl)butyl)piperidine-1-carbonyl)-2-chlorophenyl)dihydropyrimidine-2,4(1H,3H)-dione] the same measures were below 50 nM and 80 to 100%.
On the same counts, the results for `COc1cc2nc(C)nc(N[C@H](C)c3cc(N)cc(C(F)(F)F)c3)c2cc1[C@H]1CC[C@H](C(=O)N2CCN(CCOC3CCN(C(=O)c4ccc(Cl)c(N5CCC(=O)NC5=O)c4)CC3)CC2)CC1` [Example 30, 1-(5-(4-(2-(4-((1R,4R)-4-(4-(((R)-1-(3-amino-5-(trifluoromethyl)phenyl)ethyl)amino)-7-methoxy-2-methylquinazolin-6-yl)cyclohexane-1-carbonyl)piperazin-1-yl)ethoxy)piperidine-1-carbonyl)-2-chlorophenyl)dihydropyrimidine-2,4(1H,3H)-dione] are 1000 to 10000 nM and below 30%.
For the compound `COc1cc2nc(C)nc(N[C@H](C)c3cc(N)cc(C(F)(F)F)c3)c2cc1O[C@H]1CC[C@H](C(=O)N2CCN(CC3CCC4(CC3)CCN(C(=O)c3ccc(Cl)c(N5CCC(=O)NC5=O)c3)CC4)CC2)CC1` [Example 31, 1-(5-(9-((4-((1R,4R)-4-((4-(((R)-1-(3-amino-5-(trifluoromethyl)phenyl)ethyl)amino)-7-methoxy-2-methylquinazolin-6-yl)oxo)cyclohexane-1-carbonyl)piperazin-1-yl)methyl)-3-azaspiro[5.5]undecane-3-carbonyl)-2-chlorophenyl)dihydropyrimidine-2,4(1H,3H)-dione], the DC50 was in the range of 1000 to 10000 nM and the Dmax was below 30%.
On to `COc1cc2nc(C)nc(N[C@H](C)c3cc(N)cc(C(F)(F)F)c3)c2cc1C1=CCC(C(=O)N2CCC(CCOCC3CCN(C(=O)c4ccc(OC)c(N5CCC(=O)NC5=O)c4)CC3)CC2)CC1` (stereo partly drawn) [Example 32, 1-(5-(4-((2-(1-(4-(4-(((R)-1-(3-amino-5-(trifluoromethyl)phenyl)ethyl)amino)-7-methoxy-2-methylquinazolin-6-yl)cyclohex-3-ene-1-carbonyl)piperidin-4-yl)ethoxy)methyl)piperidine-1-carbonyl)-2-methoxyphenyl)dihydropyrimidine-2,4(1H,3H)-dione], for which the DC50 was below 50 nM and the greatest degradation seen (Dmax) is 80 to 100%.

These data come from patent US20240261417A1, “SOS1 DEGRADING AGENT AND PREPARATION METHOD THEREFOR AND APPLICATION THEREOF” (SHANGHAI LEADINGTAC PHARMACEUTICAL CO. LTD., priority 2021, published 2024).
